Source: patent publication US12331040B2 (Karyopharm Therapeutics Inc., priority 2013, dated 2025)

Experiments:
Assay in all cases: MTT cell proliferation assay
Assay type in all cases: cell-based
AML-193 cells = settings: 72-hour MTT
Procedure: (§1) The MTT cell proliferation assay was used to study the cytotoxic properties of the compounds. The assay was performed according to the method described by Roche Molecular Biochemicals, with minor modifications. The assay is based on the cleavage of the tetrazolium salt, MTT, in the presence of an electron-coupling reagent. The water-insoluble formazan salt produced must be solubilized in an additional step. Cells grown in a 96-well tissue culture plate were incubated with the MTT solution for approximately 4 hours. After this incubation period, a water-insoluble formazan dye formed. After solubilization, the formazan dye was quantitated using a scanning multi-well spectrophotometer (ELISA reader). […] The cells were seeded at 5,000-10,000 cells in each well of 96-well plate in 100 μL of fresh culture medium and were allowed to attach overnight. The stock solutions of the compounds were diluted in 100 μL cell culture medium to obtain eight concentrations of each test compound, ranging from 1 nM to 30 μM. […] All optical densities were measured at 490 nm using a Vmax Kinetic Microplate Reader (Molecular Devices). In most cases, the assay was performed in duplicate and the results were presented as a mean percent inhibition to the negative control±SE. The following formula was used to calculate the percent of inhibition: Inhibition (%)=(1−(ODo/OD))×100.
(§2) Compounds 504, 510, 525 and 585 were further tested against selected solid and hematological cancer cell lines and selected normal cell lines in a 72-hour MTT cell proliferation assay.

AU-565 cells = settings: Homo sapiens, AU565, 72-hour MTT
Procedure: as §1, §2

BL-40 cells = settings: 72-hour MTT
Procedure: as §1, §2

CaOV3 cells = settings: Homo sapiens, Caov-3, 72-hour MTT
Procedure: as §1, §2

DB cells = settings: Homo sapiens, 72-hour MTT
Procedure: as §1, §2

HCC-1143 cells = settings: Homo sapiens, HCC1143, 72-hour MTT
Procedure: as §1, §2

HCC-1428 cells = settings: Homo sapiens, HCC1428, 72-hour MTT
Procedure: as §1, §2

HCC-4006 cells = settings: Homo sapiens, HCC4006, 72-hour MTT
Procedure: as §1, §2

HCT116 cells = settings: Homo sapiens, HCT-116, 72-hour MTT
Procedure: as §1, §2

HCT116.1 cells = settings: 72-hour MTT
Procedure: as §1, §2

HS-Sultan cells = settings: 72-hour MTT
Procedure: as §1, §2

HT1080 cells = settings: Homo sapiens, HT-1080, 72-hour MTT
Procedure: as §1, §2

HTB-38 cells = settings: 72-hour MTT
Procedure: as §1, §2

HuCCT-1 cells = settings: Homo sapiens, 72-hour MTT
Procedure: as §1, §2

IMR-90 cells = settings: Homo sapiens, 72-hour MTT
Procedure: as §1, §2

Jurkat cells = settings: Homo sapiens, 72-hour MTT
Procedure: as §1, §2

KG-1 cells = settings: Homo sapiens, 72-hour MTT
Procedure: as §1, §2

L3.6pl cells = settings: Homo sapiens, 72-hour MTT
Procedure: as §1, §2

LS-180 cells = settings: Homo sapiens, LS180, 72-hour MTT
Procedure: as §1, §2

MCF-10A cells = settings: Homo sapiens, 72-hour MTT
Procedure: as §1, §2

MDA-MB-175 cells = settings: 72-hour MTT
Procedure: as §1, §2

MDA-MB-361 cells = settings: Homo sapiens, 72-hour MTT
Procedure: as §1, §2

MHCC97H cells = settings: Homo sapiens, 72-hour MTT
Procedure: as §1, §2

MiaPaCa-2 cells = settings: Homo sapiens, MIA PaCa-2, 72-hour MTT
Procedure: as §1, §2

NCI-H2170 cells = settings: Homo sapiens, 72-hour MTT
Procedure: as §1, §2

NCI-H520 cells = settings: Homo sapiens, 72-hour MTT
Procedure: as §1, §2

NCI-H747 cells = settings: Homo sapiens, 72-hour MTT
Procedure: as §1, §2

NCI-H820 cells = settings: 72-hour MTT
Procedure: as §1, §2

NHEK cells = settings: 72-hour MTT
Procedure: as §1, §2

OCIAML5 cells = settings: Homo sapiens, OCI-AML-5, 72-hour MTT
Procedure: as §1, §2

PATU-8988S cells = settings: PaTuÂ 8988s, 72-hour MTT
Procedure: as §1, §2

Pfieffer cells = settings: 72-hour MTT
Procedure: as §1, §2

SK-CO-1 cells = settings: Homo sapiens, 72-hour MTT
Procedure: as §1, §2

SKOV3 cells = settings: Homo sapiens, SK-OV-3, 72-hour MTT
Procedure: as §1, §2

SW-1417 cells = settings: Homo sapiens, SW1417, 72-hour MTT
Procedure: as §1, §2

SW-48 cells = settings: Homo sapiens, SW48, 72-hour MTT
Procedure: as §1, §2

TF-1 cells = settings: Homo sapiens, 72-hour MTT
Procedure: as §1, §2

TFK-1 cells = settings: 72-hour MTT
Procedure: as §1, §2

U-937 cells = settings: Homo sapiens, 72-hour MTT
Procedure: as §1, §2

## Nc1ccc(/C=C/C(=O)NCc2cc3cc(-c4ccc(C(=O)N5CCC(F)(F)CC5)cn4)cc(C(F)(F)F)c3o2)cn1 [Compound 585, (E)-3-(6-aminopyridin-3-yl)-N-((5-(5-(4,4-difluoropiperidine-1-carbonyl)pyridin-2-yl)-7-(trifluoromethyl)benzofuran-2-yl)methyl)acrylamide]
AML-193 cells
  IC50: 30 nM
AU-565 cells
  IC50: 140 nM
BL-40 cells
  IC50: 300 nM
CaOV3 cells
  IC50: 2220 nM
DB cells
  IC50: 290 nM
HCC-1143 cells
  IC50: 210 nM
HCC-1428 cells
  IC50: 4400 nM
HCC-4006 cells
  IC50: 740 nM
HCT116 cells
  IC50: 9820 nM
HCT116.1 cells
  IC50: > 10000 nM
HS-Sultan cells
  IC50: 200 nM
HT1080 cells
  IC50: 210 nM
HTB-38 cells
  IC50: > 10000 nM
HuCCT-1 cells
  IC50: 60 nM
IMR-90 cells
  IC50: 4000 nM
Jurkat cells
  IC50: 40 nM
KG-1 cells
  IC50: 150 nM
L3.6pl cells
  IC50: 70 nM
LS-180 cells
  IC50: 150 nM
MCF-10A cells
  IC50: 140 nM
MDA-MB-175 cells
  IC50: > 10000 nM
MDA-MB-361 cells
  IC50: > 10000 nM
MHCC97H cells
  IC50: > 10000 nM
MiaPaCa-2 cells
  IC50: 880 nM
NCI-H2170 cells
  IC50: 1260 nM
NCI-H520 cells
  IC50: 20 nM
NCI-H747 cells
  IC50: 590 nM
NCI-H820 cells
  IC50: 2840 nM
NHEK cells
  IC50: 10400 nM
OCIAML5 cells
  IC50: 50 nM
PATU-8988S cells
  IC50: 470 nM
Pfieffer cells
  IC50: 80 nM
SK-CO-1 cells
  IC50: 1190 nM
SKOV3 cells
  IC50: > 10000 nM
SW-1417 cells
  IC50: 1270 nM
SW-48 cells
  IC50: 170 nM
TF-1 cells
  IC50: 60 nM
TFK-1 cells
  IC50: 1030 nM
U-937 cells
  IC50: 260 nM
